This note sets out measurements from patent US10889543B2, “Fine-tune modulators of neuronal excitability for neuropsychiatric disorders” (THE BOARD OF REGENTS OF THE UNIVERSITY OF TEXAS SYSTEM, priority 2016, dated 2021).

Structures are written as SMILES. Residues, ends and D or L forms follow the SMILES beside them. *: point of attachment. Fmoc = O=C(OCC1c2ccccc2-c2ccccc21)*; Cbz = O=C(OCc1ccccc1)*; Boc = CC(C)(C)OC(=O)*

This assay deals with T1, FGF14:Nav1.6 complex (Homo sapiens, UniProt Q92915).
T1 construct: FGF14 and the C-tail of Nav1.6 channels are fused to vectors expressing CLuc and NLuc luciferase reporter; expressed in transfected cells; host or cells: HEK293, transient transfection
T1 sequence (Q92915 1-252 isoform Q92915-2): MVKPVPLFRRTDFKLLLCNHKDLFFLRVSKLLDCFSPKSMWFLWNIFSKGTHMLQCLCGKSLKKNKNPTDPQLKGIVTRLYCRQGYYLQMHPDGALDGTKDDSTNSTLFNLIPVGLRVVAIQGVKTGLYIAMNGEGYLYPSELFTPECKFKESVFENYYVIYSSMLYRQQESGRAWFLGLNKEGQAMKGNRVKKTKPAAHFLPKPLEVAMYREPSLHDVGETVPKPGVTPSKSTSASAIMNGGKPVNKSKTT
The assay is described as follows: Split-luciferase complementation assay (LCA) in HEK293 cells expressing CLuc-FGF14 and CD4-Nav1.6-NLuc. Format: cell-based. As to conditions: 50 μM, normalized to DMSO control. As to the method: Detailed methods for LCA can be found is known in the art. See e.g., Shavkunov A. S., et al., Methods in Molecular Biology 1278:497-514 (2015). Statistical values were calculated as mean and standard error of the mean (mean±SEM), unless otherwise specified. The statistical significance (*p<0.05) of different groups was determined by Student's t-test, one-way ANOVA with post-hoc Bonferroni's method or Kruskal-Wallis one-way ANOVA on ranks with post-hoc Dunn's method using Sigma Stat (San Jose, Calif.) and Graph PrismR (La Jolla, Calif.) software. Dose-response modulation was determined by: y=START+(END−START)*x^n/(k^n+x^n) where k, Michaelis constant; n, cooperative sites; x, independent variable; y, dependable variable.
To monitor the role of compounds of the invention in the FGF14:Nav1.6 complex, certain embodiments of the invention were screened by split-luciferase complementation assay (LCA) where FGF14 and the C-tail of Nav1.6 channels are fused to vectors expressing CLuc and NLuc luciferase reporter. Compounds of the invention, as exemplified by, compounds ZL0141, ZL0148, ZL0181, and ZL0182 (see FIG. 1) were tested at 50 μM in HEK293 cells expressing CLuc-FGF14 and CD4:Nav1.6-NLuc. […] None of the tested compounds interfered with the full-length luciferase enzyme (FIG. 2B, Chart C). Dose-response studies were then performed with compounds ZL0148, ZL0181, and ZL0182 against the FGF14:Nav1.6 complex.

On to `CC(C)C[C@H](NC(=O)[C@H](Cc1ccccc1)NC(=O)OCc1ccccc1)C(=O)N1CCC[C@H]1C(N)=O` [ZL0141, Z-Phe-Leu-Pro-NH2] (Cbz-Phe-Leu-Pro-NH2), for which the “luminescence response compared to control (DMSO)” value came out at 103±14%. The figure for `CC(=O)N[C@@H](Cc1ccccc1)C(=O)N[C@@H](CC(C)C)C(=O)N[C@@H](CCCCNC(=O)OC(C)(C)C)C(N)=O` [ZL0148, Ac-Phe-Leu-Lys(Boc)-NH2] (Ac-Phe-Leu-Lys(Boc)-NH2) is 132±9%. The figure for `CC(=O)N[C@@H](Cc1ccccc1)C(=O)N[C@@H](CC(C)C)C(=O)N1CCC[C@H]1C(=O)N[C@@H](CCCCNC(=O)OCC1c2ccccc2-c2ccccc21)C(=O)O` [ZL0182, Ac-Phe-Leu-Pro-Lys(Fmoc)-OH] (Ac-FLPK(Fmoc)-OH) is 129±13%.
